Data on three compounds can be found in US7648961B2, “Use of somatostatin or one of its analogues for preparing a medicament intended to regulate the ovarian follicular reserve in non-menopausal women” (Preglem S.A., priority 2003, dated 2010).

Assay [1] concerns primordial follicles of ovarian cortex. Kind of assay: Culture of ewe ovarian cortex fragments for 10 days: start of growth of primordial follicles. The assay is classed as cell-based. As to conditions: for start of growth of the primordial follicles: ewe ovarian cortex, 10 days of culture, versus control fragments. The procedure: Ovaries of adult ewes are collected immediately after slaughter. The ovaries are placed in an organ transport medium without serum (X-vivo, Bio Whittaker, Walkersville, Md., USA) at 10° C. and transported to the laboratory. Approximately 1 h after removal, the cortex is isolated from the medulla then fractionated into slices of 2 mm thickness (1 cm^2, average weight of 212 mg) after rinsing in new X-vivo. The cortex fragments are cultured in an oven under 5% oxygen for 10 days in well plates in the presence of DMEM. The medium is changed every 2 days.
The procedure used is the same as for Example 1, except that the somatostatin is replaced with one of its agonist analogues, namely the synthetic peptide of formula c[Tic-Tyr-DTrp-Lys-Abu-Phe] (hereafter AG1 peptide).
The procedure used is the same as for Example 1, except that the somatostatin is replaced by one of its antagonist analogues, namely the synthetic peptide of formula Cpa-c(DCys-3-Pal-DTrp-NMeLys-Thr-Cys)-2-Nal-NH2 (hereafter ANT1 peptide).
FIG. 1 represents the proportions of dormant follicles during a period of 10 days of culture of an ovarian cortex of a ewe in the presence or absence (control) of somatostatin (SST14). These proportions are measured for each sample tested on the day of the start of the experiment (D0), on the 4th day (D4), on the 7th day (D7) and on the 10th day (D10).
FIG. 2 represents the proportions of primary follicles during a period of 10 days of culture of an ovarian cortex of a ewe in the presence or absence (control) of somatostatin (SST14). These proportions are measured for each sample tested on the day of the start of the experiment (D0), on the 4th day (D4), on the 7th day (D7) and on the 10th day (D10).
FIG. 3 represents the proportions of primordial, intermediate, primary and secondary follicles during a period of 10 days of culture of an ovarian cortex of a ewe in the absence of agonist or somatostatin antagonist analogue. These proportions are measured for each sample tested on the day of the start of the experiment (D0), on the 4th day (D4), on the 7th day (D7) and on the 10th day (D10).
FIG. 4 represents the proportions of primordial, intermediate, primary and secondary follicles during a period of 10 days of culture of an ovarian cortex of a ewe in the presence or absence of a somatostatin agonist analogue, the synthetic peptide of formula c[Tic-Tyr-DTrp-Lys-Abu-Phe] (AG1 peptide). These proportions are measured for each sample tested on the day of the start of the experiment (D0), on the 4th day (D4), on the 7th day (D7) and on the 10th day (D10).
FIG. 5 represents the proportions of primordial, intermediate, primary and secondary follicles during a period of 10 days of culture of an ovarian cortex of a ewe in the presence or absence of a somatostatin antagonist analogue, the synthetic peptide of formula Cpa-c(DCys-3-Pal-DTrp-NMeLys-Thr-Cys)-2-Nal-NH2 (ANT1 peptide). These proportions are measured for each sample tested on the day of the start of the experiment (D0), on the 4th day (D4), on the 7th day (D7) and on the 10th day (D10).

In a further assay the test system is ovarian follicles. Kind of assay: Envisaged typical clinical situations of use in patients. In kind it is in vivo, human. Conditions: patient with polycystic ovary syndrome, 120 mg/month, 4th month of treatment, envisaged situation. From the text: The following typical situations for a use according to the invention could however be envisaged: • A patient of approximately 20 to 25 years of age (for example) has a partial Turner syndrome through X chromosome microdeletion. Their ovarian function is apparently normal with regular ovulatory cycles. Their FSH serum level is slightly higher during the luteal-follicular transition period (for example FSH=approximately 9.2 IU/litre). […] Considering the high risk that they will have early menopause, the patient is treated with lanreotide acetate at a dose of 120 mg/months (Somatuline® Autogel® 120 mg, Beaufour Ipsen Pharma, France). The treatment is discontinued after several years when the patient wishes to conceive. • A patient of approximately 35 to 40 years of age has had primary sterility for several years. Assessment of the couple produced a diagnosis of sterility of tubal origin, very probably resulting from a history of peritonitis. The menstrual cycles are ovulatory and the FSH serum level is slightly higher during the luteal-follicular transition period (for example FSH=approximately 11.4 IU/L). […] A diagnosis of reduction of the ovarian reserve is made. […] During this treatment, the number of antral follicles present in each ovary is assessed by ultrasound at the start of each menstrual cycle. […]

Setting [2] is: AG1 peptide at 10^-9 M, D0-D10, FIG. 4.

Where a SMILES comes first, the peptide text is derived from it. [ ]: non-standard residue; d: D form. Tic = O=C(O)[C@@H]1Cc2ccccc2CN1; Abu = CC[C@H](N)C(=O)O

In the case of `CC[C@@H]1NC(=O)[C@H](CCCCN)NC(=O)[C@@H](Cc2c[nH]c3ccccc23)NC(=O)[C@H](Cc2ccc(O)cc2)NC(=O)[C@@H]2Cc3ccccc3CN2C(=O)[C@H](Cc2ccccc2)NC1=O` [AG1 peptide, c[Tic-Tyr-DTrp-Lys-Abu-Phe]] (cyclo([Tic]Y[dW]K[Abu]F)), in assay [1] (setting [2]), the “number of primary follicles” value was “absence of increase in the number of primary follicles” and the “number of primordial follicles over time” value is “maintenance over time of the number of primordial follicles”. Moreover, in assay [1] (AG1 peptide at 10^-9 M), the “start of growth of the primordial follicles” value was “very significantly inhibits the start of growth of the primordial follicles”.
As to `C[C@H](N)C(=O)NCC(=O)N[C@H]1CSSC[C@@H](C(=O)O)NC(=O)[C@H](CO)NC(=O)[C@H]([C@@H](C)O)NC(=O)[C@H](Cc2ccccc2)NC(=O)[C@H]([C@@H](C)O)NC(=O)[C@H](CCCCN)NC(=O)[C@H](Cc2c[nH]c3ccccc23)NC(=O)[C@H](Cc2ccccc2)NC(=O)[C@H](Cc2ccccc2)NC(=O)[C@H](CC(N)=O)NC(=O)[C@H](CCCCN)NC1=O` [SST14], the “number of primordial follicles over time” value in assay [1] (SST14 at 10^-9 M to 10^-6 M, D0-D10, FIG. 1) is listed as “maintenance over time of the number of primordial follicles”. Besides, the “number of primary follicles” value in assay [1] (SST14 at 10^-9 M to 10^-6 M, D0-D10, FIG. 2) was “absence of increase in the number of primary follicles”. Moreover, in assay [1] (SST14 at 10^-9 M to 10^-6 M), the “start of growth of the primordial follicles” value is recorded as “very significantly inhibits the start of growth of the primordial follicles”.
Turning to `CC(C)[C@@H]1NC(=O)[C@H](CCCCN)NC(=O)[C@@H](Cc2c[nH]c3ccccc23)NC(=O)[C@H](Cc2ccc(O)cc2)NC(=O)[C@@H](NC(=O)[C@H](N)Cc2ccc3ccccc3c2)CSSC[C@@H](C(=O)N[C@H](C(N)=O)[C@@H](C)O)NC1=O` [lanreotide acetate], the “ovarian volume and number of antral follicles (ultrasound)” value in the assay with ovarian follicles was “reduction in ovarian volume and in the number of antral follicles”.
